In patent publication US20240190993A1, “NEW METHOD TO IMPROVE THE ANTI-TUMORAL ACTIVITY OF MACROPHAGES” (INSERM (INSTITUT NATIONAL DE LA SANTÉ ET DE LA RECHERCHE …, priority 2021, published 2024):
“Also recorded” adds a separate entry of the source.

How the values were obtained:
CD47 [1] = assay: CD47 cell-surface expression in human NB cell lines in vitro, flow cytometry; assay type: cell-based; conditions: human NB cell lines IMR5, LAN1; 72 hours incubation; FIG. 2A-C
Procedure: (§1) FIG. 2. Both O-acetyl GD2-specific monoclonal antibody 8B6 and 13-cis-RA exposures induce CD47 phagocytosis checkpoint up-regulation in NB cells in vitro. The NB cells IMR5, LAN1 and NXS2 were respectively incubated for 72 hours with (A) 13-cis-RA, (B) mAb 8B6, and (C) 13-cis-RA plus mAb 8B6, as indicated. After incubation, CD47 cell surface expression was analyzed by flow cytometry analysis. […] Data are presented as the mean±SEM ([…]; **p<0.01; ***p<0.001; Mann-Whitney test).
(§2) We next interrogate the impact of mAb 8B6, used alone or in combination with 13-cis-RA, on CD47 cell-surface expression in human NB cell line. After 72 hours incubation, cells were harvested, stained with a CD47-specific mAb and then subjected to flow cytometry analysis. […] The tested treatments had little impact on CD47 NXS2 cell-surface expression (FIG. 2A-C).

CD47 [2] = assay: CD47 cell-surface expression in NXS2 cells in vitro, flow cytometry; assay type: cell-based, mouse; conditions: 72 hours incubation, FIG. 2A-C
Procedure: as §1, §2

NXS2 cells = assay: syngeneic model of NXS2 NB liver metastasis in A/J mice, liver weight; assay type: in vivo, mouse
Procedure: Depletion of macrophages in 8-week-old A/J mice was performed clodronate liposomes or liposomes obtained from Liposoma (Liposoma BV, Amsterdam, the Netherlands) according to the manufacturer's instructions. Mice were given either clodronate liposomes or liposome i.p. 4 days before tumor cell injection and thereafter on days 0, 3, 7, 10, 14, 17, and 21 post-tumor cell inoculation. The effectiveness of macrophage depletion was determined by flow cytometry analysis of CD45+F4/80+CD11b+Ly6G-Ly6Clow-int cells among splenocytes from the treated animals.
NXS2 Cells (2.5×10^5 in 100 μL of PBS) were transplanted into syngeneic 8-weeks old female A/J mice (Harlan Laboratories, Gannat, France) i.v., to induces liver metastasis 6. Mice received either mAb 8B6 (25 μg, i.v.) or mAb P84 (200 μg, i.p.) twice a week for 3 consecutive weeks beginning 3 days after tumor cell injection. Isotretinoin was given orally diluted in Ora-Plus® at 10 mg/kg daily for 5 consecutive days, starting week 3 after tumor cell challenge. Mice were euthanized on day 27 post-tumor challenge. Anti-tumor efficacy was evaluated by liver weight of the fresh specimen as described previously 6.

In the case of `CC1=C(/C=C/C(C)=C/C=C/C(C)=C\C(=O)O)C(C)(C)CCC1` [13-cis-RA, 13-cis-retinoic acid], the CD47 cell-surface expression (CD47 [1]) is reported as “induces up-regulation of CD47; also recorded: induced CD47 up-regulation”, the CD47 cell-surface expression (CD47 [2]) is reported as “induces up-regulation of CD47” and the liver weight (NXS2 cells; FIG. 1B, day 27 after i.v. NXS2 inoculation, 8 mice/group, 8B6 i.v. days 3,7,10,14,17,21, 13-cis-RA 10 mg/kg per os) is reported as 1.19 ± 0.0 g. It also gave a liver weight (NXS2 cells; FIG. 4B, day 27, 8B6 25 μg i.v., P84 i.p. days 3,7,10,14,17,21, 13-cis-RA 10 mg/kg per os days 17-21) of 1.95 ± 0.12 g.
